Experimental data published in patent publication US9120749B2, “Quinoline derivatives and MELK inhibitors containing the same” (ONCOTHERAPY SCIENCE, INC., priority 2010, dated 2015).
Structures can show the parent of a compound that is named as a salt.

Molecular target: MELK (Homo sapiens, UniProt Q14680)
Assay: Kinase assay: MELK activity, phosphorylation of FITC-labeled histone H3 peptide measured by IMAP fluorescence polarization
Type: biochemical
Details: MELK kinase assay, IMAP fluorescence polarization, 50 micro-M ATP; dihydrochloride; read-out: IC50 (μM) (kinase assay)
Experimental: MELK activity was determined in the presence or absence of compounds using fluorescein isothiocyanate-labeled (FITC-labeled) histone H3 peptide as a substrate. […] Test compounds were dissolved in DMSO at 12.5 mM and then serially diluted as the DMSO concentration in the assays to be 1%. […] The reaction was stopped by the addition of three fold assay volume of progressive binding solution. Following 0.5 hour incubation at room temperature, fluorescence polarization was measured by Wallac EnVision 2103 multilabel reader (PerkinElmer).

Chain of MELK (Q14680 whole entry, looked up): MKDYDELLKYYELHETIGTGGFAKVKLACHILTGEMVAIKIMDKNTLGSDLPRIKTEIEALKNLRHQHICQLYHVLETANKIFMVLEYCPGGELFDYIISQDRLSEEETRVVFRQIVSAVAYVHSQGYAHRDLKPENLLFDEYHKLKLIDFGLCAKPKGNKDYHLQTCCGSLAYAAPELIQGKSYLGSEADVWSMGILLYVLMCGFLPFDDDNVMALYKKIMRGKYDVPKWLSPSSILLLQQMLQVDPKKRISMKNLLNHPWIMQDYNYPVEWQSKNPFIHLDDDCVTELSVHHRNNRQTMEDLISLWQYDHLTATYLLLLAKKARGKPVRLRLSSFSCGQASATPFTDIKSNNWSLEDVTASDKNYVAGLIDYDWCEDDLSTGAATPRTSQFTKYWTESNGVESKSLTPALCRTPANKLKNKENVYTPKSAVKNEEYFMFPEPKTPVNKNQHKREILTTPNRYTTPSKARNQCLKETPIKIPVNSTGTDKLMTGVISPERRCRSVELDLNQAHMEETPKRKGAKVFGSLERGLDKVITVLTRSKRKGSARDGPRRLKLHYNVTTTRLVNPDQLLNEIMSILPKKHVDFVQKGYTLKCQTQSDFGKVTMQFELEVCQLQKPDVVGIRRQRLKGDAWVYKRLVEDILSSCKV

SMILES | IC50 [µM]
CC(=O)c1cnc2ccc(-c3cc(F)c(O)c(Cl)c3)cc2c1N[C@H]1CC[C@H](CN(C)C)CC1 [Example 943, 1-(6-(3-chloro-5-fluoro-4-hydroxyphenyl)-4-((trans-4-((dimethylamino)methyl)cyclohexyl)amino)quinolin-3-yl)ethanone dihydrochloride] | 0.004

Same assay, conditions: MELK kinase assay, IMAP fluorescence polarization, 50 micro-M ATP; hydrochloride; read-out: IC50 (μM) (kinase assay)

SMILES | IC50 [µM]
CC(=O)c1cnc2ccc(-c3cc(Cl)c(O)c(Cl)c3)cc2c1N[C@H]1CC[C@H](CN(C)C)CC1 [Example 944, 1-{6-(3,5-Dichloro-4-hydroxyphenyl)-4-[trans-4-((dimethylamino)methyl)cyclohexylamino]quinolin-3-yl}ethanone hydrochloride] | 0.00094

Same assay, conditions: MELK kinase assay, IMAP fluorescence polarization, 50 micro-M ATP; read-out: IC50 (μM) (kinase assay)

SMILES | IC50 [µM]
CC(=O)c1cnc2cc(C)c(-c3cc(Cl)c(O)c(Cl)c3)cc2c1N[C@H]1CC[C@H](CN(C)C)CC1 [Example 857] | 3.4
CC(=O)c1cnc2ccc(-c3cc(F)c(O)c(Cl)c3)cc2c1N[C@H]1CC[C@H](CN(C)C)CC1 [Example 378, 1-(6-(3-chloro-5-fluoro-4-hydroxyphenyl)-4-((trans)-4-((dimethylamino)methyl)cyclohexylamino)quinolin-3-yl) ethanone] | 0.0061
CN(C)C[C@H]1CC[C@H](Nc2c(C(=O)C3CC3)cnc3cc(C(F)(F)F)c(-c4cc(F)c(O)c(Cl)c4)cc23)CC1 [Example 841] | 0.77
CC(=O)c1cnc2ccc(-c3ccc(-c4ccc(O)cc4)cc3)cc2c1Nc1cccc(CCN2CCCC2)c1 [Example 888, 1-(6-(4′-hydroxy-[1,1′-biphenyl]-4-yl)-4-((3-(2-(pyrrolidin-1-yl)ethyl)phenyl)amino)quinolin-3-yl) ethanone hydrochloride] | 3.4
CC(=O)c1cnc2cc(C)c(-c3cc(F)c(O)c(Cl)c3)cc2c1Nc1ccc(CN(C)C)cc1 [Example 858, 1-(6-(3-chloro-5-fluoro-4-hydroxy-phenyl)-4-((4-((dimethylamino)methyl)phenyl)amino)-7-methylquinolin-3-yl)ethanone hydrochloride] | 0.2
CC(=O)c1cnc2cc(C)c(-c3cc(F)c(O)c(Cl)c3)cc2c1N[C@H]1CC[C@H](CN(C)C)CC1 [Example 859, 1-(6-(3-chloro-5-fluoro-4-hydroxy-phenyl)-4-((1R,4R)-4-((dimethylamino)methyl)cyclohexyl)amino)-7-methyl-quinolin-3-yl)ethanone hydrochloride] | 0.84
CC(=O)c1c(C)nc2ccc(-c3cc(F)c(O)c(Cl)c3)cc2c1Nc1ccc(N2CCN(C)CC2)nc1 [Example 837, 1-(6-(3-chloro-5-fluoro-4-hydroxy-phenyl)-2-methyl-4-(6-(4-methyl-piperazin-1-yl)pyridin-3-ylamino)quinolin-3-yl)ethanone hydrochloride] | 0.54
CN(C)C[C@H]1CC[C@H](Nc2c(C(=O)C3CC3)cnc3ccc(-c4cc(Cl)c(O)c(Cl)c4)cc23)CC1 [Example 324, cyclopropyl(6-(3,5-dichloro-4-hydroxyphenyl)-4-(trans-4-((dimethylamino)methyl)cyclohexylamino)quinolin-3-yl)methanone] | 0.00085
CC(=O)c1c(C)nc2ccc(-c3cc(F)c(O)c(Cl)c3)cc2c1N[C@H]1CC[C@H](CN(C)C)CC1 [Example 834, 1-(6-(3-chloro-5-fluoro-4-hydroxy-phenyl)-4-(1R,4R)-4-((dimethylamino)methyl)cyclohexylamino)-2-methyl-quinolin-3-yl)ethanone hydrochloride] | 0.82
CC(=O)c1cnc2ccc(-c3cc(Cl)c(O)c(Cl)c3)cc2c1Nc1ccc(CN(C)C)cc1 [Example 374] | 0.0066
CC(=O)c1cnc2ccc(-c3ccc4nc[nH]c4c3)cc2c1Nc1cccc(CCN2CCCC2)c1 [Example 896, 1-(6-(1H-benzo[d]imidazol-6-yl)-4-((3-(2-(pyrrolidin-1-yl)ethyl)phenyl)amino)quinolin-3-yl)ethanone hydrochloride] | 0.22
CC(=O)c1cnc2cc(C)c(-c3cc(F)c(O)c(Cl)c3)cc2c1Nc1ccc(N2CCN(C)CC2)nc1 [Example 856, 1-(6-(3-chloro-5-fluoro-4-hydroxy-phenyl)-7-methyl-4-((6-(4-methyl-piperazin-1-yl)pyridin-3-yl)amino)quinolin-3-yl)ethanone hydrochloride] | 0.46
CN(C)[C@H]1CC[C@H](Nc2c(C(=O)C3CC3)cnc3ccc(-c4cc(F)c(O)c(Cl)c4)cc23)CC1 [Example 264, (6-(3-chloro-5-fluoro-4-hydroxyphenyl)-4-((1R,4R)-4-(dimethylamino)cyclohexylamino)quinolin-3-yl)(cyclopropyl)methanone] | 0.0029
CC(=O)c1cnc2cc(C)c(-c3cc(Cl)c(O)c(Cl)c3)cc2c1Nc1ccc(CN(C)C)cc1 [Example 847, 1-(6-(3,5-dichloro-4-hydroxyphenyl)-4-(4-((dimethylamino)methyl)phenyl-amino)-7-methylquinolin-3-yl) ethanone hydrochloride] | 0.55
N[C@H]1CC[C@H](Nc2c(C(=O)C3CC3)cnc3ccc(-c4cc(F)c(O)c(Cl)c4)cc23)CC1 [Example 936, (4-((1R,4R)-4-aminocyclohexylamino)-6-(3-chloro-5-fluoro-4-hydroxyphenyl)quinolin-3-yl)(cyclopropyl)methanone, hydrochloride] | 0.0019
CC(=O)c1c(C)nc2ccc(-c3cc(Cl)c(O)c(Cl)c3)cc2c1N[C@H]1CC[C@H](CN(C)C)CC1 [Example 833, 1-(6-(3,5-dichloro-4-hydroxyphenyl)-4-(1R,4R)-4-((dimethylamino)methyl)cyclohexylamino)-2-methylquinolin-3-yl)ethanone hydrochloride] | 0.17
CC(=O)c1cnc2ccc(-c3ccc4nc[nH]c4c3)cc2c1Nc1ccc(N2CCC(N(C)C)C2)nc1 (stereo not shown) [Example 905, 1-(6-(1H-benzo[d]imidazol-6-yl)-4-((6-(3-(dimethylamino)pyrrolidin-1-yl)pyridin-3-yl)amino)quinolin-3-yl) ethanone hydrochloride] | 0.11
CC(C)C(=O)c1cnc2ccc(-c3cc(F)c(O)c(F)c3)cc2c1N[C@H]1CC[C@H](N)CC1 [Example 938, 1-(4-((1R,4R)-4-aminocyclohexylamino)-6-(3,5-difluoro-4-hydroxyphenyl)quinolin-3-yl)-2-methylpropan-1-one, hydrochloride] | 0.017
CN1CCN(c2ccc(Nc3c(C(=O)C4CC4)cnc4cc(C(F)(F)F)c(-c5cc(Cl)c(O)c(Cl)c5)cc34)cn2)CC1 [Example 839, cyclopropyl(6-(3,5-dichloro-4-hydroxy-phenyl)-4-(6-(4-methylpiperazin-1-yl)pyridin-3-ylamino)-7-(trifluoro-methyl)quinolin-3-yl)methanone] | 4.2
CN(C)C[C@H]1CC[C@H](Nc2c(C(=O)C3CC3)cnc3cc(C(F)(F)F)c(-c4cc(Cl)c(O)c(Cl)c4)cc23)CC1 [Example 842] | 0.93
CC(=O)c1cnc2ccc(-c3cc(Cl)c(O)c(Cl)c3)cc2c1N[C@H]1CC[C@H](N)CC1 [Example 939, 1-(4-((1R,4R)-4-aminocyclohexylamino)-6-(3,5-dichloro-4-hydroxyphenyl)quinolin-3-yl)ethanone, hydrochloride] | 0.0034
COc1ccc2c(c1)CN(c1ccc3ncc(C(C)=O)c(N[C@H]4CC[C@H](CN(C)C)CC4)c3c1)C2=O [Example 933] | 1.2
CC(=O)c1cnc2ccc(-c3ccncc3)cc2c1N[C@H]1CC[C@H](CN(C)C)CC1 [Example 908, 1-(4-((1R,4R)-4-((dimethylamino)methyl)cyclohexyl)amino)-6-(pyridin-4-yl)quinolin-3-yl)ethanone hydrochloride] | 0.23
COc1cc(-c2ccc3ncc(C(C)=O)c(N[C@H]4CC[C@H](N)CC4)c3c2)cc(Cl)c1O [Example 940, 1-(4-((1R,4R)-4-aminocyclohexylamino)-6-(3-chloro-4-hydroxy-5-methoxyphenyl)quinolin-3-yl)ethanone, hydrochloride] | 0.0012
CC(C)C(=O)c1cnc2ccc(-c3cc(F)c(O)c(Cl)c3)cc2c1N[C@H]1CC[C@H](N)CC1 [Example 937, 1-(4-((1R,4R)-4-aminocyclohexylamino)-6-(3-chloro-5-fluoro-4-hydroxyphenyl)quinolin-3-yl)-2-methylpropan-1-one, dihydrochloride] | 0.0054
CN1CCN(c2ccc(Nc3c(C(=O)C4CC4)cnc4cc(C(F)(F)F)c(-c5cc(F)c(O)c(Cl)c5)cc34)cn2)CC1 [Example 840, (6-(3-chloro-5-fluoro-4-hydroxyphenyl)-4-(6-(4-methylpiperazin-1-yl)pyridin-3-ylamino)-7-(trifluoromethyl)quinolin-3-yl)(cyclopropyl)methanone] | 3.1
CC(=O)c1cnc2ccc(-c3cc(Cl)c(O)c(Cl)c3)cc2c1Nc1ccc(CN(C)C)cc1 [Example 942, 1-(6-(3,5-dichloro-4-hydroxyphenyl)-4-(4-((dimethylamino)methyl)phenylamino)quinolin-3-yl)ethanone] | 0.0022
CN(C)[C@H]1CC[C@H](Nc2c(C(=O)C3CC3)cnc3ccc(-c4cc(Cl)c(O)c(Cl)c4)cc23)CC1 [Example 941, cyclopropyl(6-(3,5-dichloro-4-hydroxyphenyl)-4-((1R,4R)-4-(dimethylamino)cyclohexylamino)quinolin-3-yl)methanone, dihydrobromide] | 0.0016

Same assay, conditions: hydrochloride; read-out: IC50 (μM) (kinase assay)

SMILES | IC50 [µM]
CN(CCO)C[C@H]1CC[C@H](Nc2c(C(=O)C3CC3)cnc3ccc(-c4cc(Cl)c(O)c(Cl)c4)cc23)CC1 [Example 635, cyclopropyl(6-(3,5-dichloro-4-hydroxyphenyl)-4-(1R,4R)-4-(((2-hydroxyethyl)(methyl)amino)methyl)cyclohexylamino)quinolin-3-yl)methanone hydrochloride] | 0.00074
